# Laboratory results as given in patent US5462726A, “Method of inhibiting side effects of solvents containing ricinoleic acid or castor oil or derivatives thereof employing a thromboxane A2 receptor antagonist and pharmaceutical compositions containing such solvents” (priority 1993, dated 1995).
# “Also recorded” adds a separate entry of the source. Where a name gives a salt, the structure may show the parent alone. Read-outs that look alike come from different tables or passages of the source.
# Columns and labels:
# [1] = target: T1, CsA-induced force development in the jugular vein (thromboxane A2 receptors) (Oryctolagus cuniculus, UniProt Q6WQI8); test: Inhibition of CsA-induced force in the jugular vein; type: cell-based, rabbit; details: for Effect on potency and maximal contractile effect of CsA (words): phentolamine 10 μM
# T1 sequence (Q6WQI8 1-233): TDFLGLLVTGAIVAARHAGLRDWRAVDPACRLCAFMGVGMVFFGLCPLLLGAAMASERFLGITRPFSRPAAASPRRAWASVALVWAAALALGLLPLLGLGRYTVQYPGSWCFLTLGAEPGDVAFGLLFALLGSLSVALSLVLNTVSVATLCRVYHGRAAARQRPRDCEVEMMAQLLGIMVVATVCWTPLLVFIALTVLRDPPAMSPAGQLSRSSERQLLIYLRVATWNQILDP
# Procedure: (§1) Male New Zealand white rabbits were euthanized by intravenous barbiturate overdose. The thoracic aorta and the left and right external jugular veins were then removed into warm (37° C.) physiological salt solution (PSS) of the following composition (mM): NaCl, 118.4; KCl, 4.7; CaCl2, 2.5; MgSO4, 1.2; NaHCO3, 24.9; KH2 PO4, 1.2; glucose, 11.1 and EDTA, 0.023; gassed with 95% O2 /5% CO2, pH 7.4. The vessels were cleaned of fat and loose adventitia and subsequently cut into rings 3-4 mm in width. The endothelium was removed from the rings, unless otherwise indicated, by gently rotating a metal probe in the lumen of the ring. The rings were then suspended in water-jacketed (37° C.) 10 ml tissue baths between two wire holders, one of which was attached to a fixed hook and the other to an isometric force transducer. Resting tension was set at 4 g for the aorta and 1 g for the jugular vein. The venous tissues were allowed to stabilize for a period of one hour and then challenged with a maximally effective concentration of bradykinin (1 μM) to evoke a tonic contracture. This response was used as a comparative reference response. Carbachol (1 μM) was introduced into the bath following stabilization of the bradykinin contracture to test for the presence of endothelium. […] The tissues were washed multiple times with fresh PSS and allowed to recover for one hour following complete relaxation from the previous bradykinin response. […] Inhibitors (enzyme or receptor) or their vehicle were introduced into the tissue bath 30 mins prior to the addition of stimulant.
# (§2) Cremophor and ricinoleic acid (Sigma Chemical company) were also diluted in ethanol. […] Ricinoleic acid was diluted in ethanol to produce final bath concentrations of (μg/ml; final bath concentration of ethanol in parentheses): 0.1 (0.1%), 0.3 (0.3%), 1.0 (0.37%), 3.0 (0.57%), 10 (0.64%), 30 (0.84%). For reference, 0.1-30 μg/ml ricinoleic acid corresponds to a molar concentration range of 0.335-100.50 μM.
# (§3) Force (mean±S.E.) is expressed as a percentage of the corresponding bradykinin or phenylephrine reference response. KB values were determined by Schild analysis and KBapp by the following formula: KBapp =[antagonist]/agonist concentration ratio-1, where agonist concentration ratio=agonist EC50 measured in presence of antagonist/agonist EC50 measured in presence of vehicle. The statistical significance between means was determined using Student's t-test with p<0.05 considered statistically significant.
# jugular vein [2] = test: Force development in isolated jugular vein rings; type: cell-based, rabbit (male New Zealand white); details: for Force development / vasoconstriction (result in words): cumulative addition, isolated vessel; for EC50: read-out: EC50 for ricinoleic acid-induced force
# Procedure: as §1, §2, §3
# aorta = test: Force development in isolated thoracic aorta rings; type: cell-based, rabbit (male New Zealand white)
# Procedure: as §1, with “stimulant. […]” for “stimulant.”
# as §3
# rat aorta = test: Ricinoleic acid force development in rat aorta; type: cell-based
# [3] = Solubility in physiological salt solution bath; type: physicochemical; details: pH 7.4, ricinoleic acid in tissue bath, read-out: Concentration at which precipitation begins
# [4] = tested on: Cremophor-induced force development in the jugular vein (thromboxane A2 receptors); test: Inhibition of Cremophor-induced force in the jugular vein; type: cell-based, rabbit; details: for Effect on vasoconstrictor effects of Cremophor (words): indomethacin 10 μM
# Procedure: as §1, §2, §3
# [5] = target: T2, thromboxane A2 /prostaglandin endoperoxide receptor (Oryctolagus cuniculus, UniProt Q6WQI8); test: Antagonism of U-46,619-induced force in the jugular vein; type: cell-based; details: rabbit jugular vein
# T2 sequence (Q6WQI8 1-233): T1 sequence (Q6WQI8 1-233)
# Procedure: as §1, with “stimulant. […]” for “stimulant.”
# as §3
# [6] = tested on: Cremophor-induced force in the aorta (thromboxane A2 receptors); test: Antagonism of Cremophor-induced force in the aorta; type: cell-based, rabbit
# Procedure: Male New Zealand white rabbits were euthanized by intravenous barbiturate overdose. The thoracic aorta and the left and right external jugular veins were then removed into warm (37° C.) physiological salt solution (PSS) of the following composition (mM): NaCl, 118.4; KCl, 4.7; CaCl2, 2.5; MgSO4, 1.2; NaHCO3, 24.9; KH2 PO4, 1.2; glucose, 11.1 and EDTA, 0.023; gassed with 95% O2 /5% CO2, pH 7.4. The vessels were cleaned of fat and loose adventitia and subsequently cut into rings 3-4 mm in width. The endothelium was removed from the rings, unless otherwise indicated, by gently rotating a metal probe in the lumen of the ring. The rings were then suspended in water-jacketed (37° C.) 10 ml tissue baths between two wire holders, one of which was attached to a fixed hook and the other to an isometric force transducer. Resting tension was set at 4 g for the aorta and 1 g for the jugular vein. […]
# as §3
# [7] = tested on: ricinoleic acid-induced force in the jugular vein (thromboxane A2 receptors); test: Antagonism of ricinoleic acid-induced force in the jugular vein; type: cell-based, rabbit; details: for Effect on ricinoleic acid-induced force (words): indomethacin, vein only
# Procedure: as §1, with “stimulant. A similar procedure was followed for the aorta except the effects of carbachol (1 μM) were tested against a submaximal concentration of phenylephrine (0.3 μM) and 30 μM phenylephrine was used to establish a reference contracture.” for “stimulant.”
# as §2, §3
# [8] = target: T3, ricinoleic acid-induced force in the aorta (thromboxane A2 receptors) (Oryctolagus cuniculus, UniProt Q6WQI8); test: Antagonism of ricinoleic acid-induced force in the aorta; type: cell-based, rabbit
# T3 sequence (Q6WQI8 1-233): T1 sequence (Q6WQI8 1-233)
# Procedure: as §1, with “stimulant. […]” for “stimulant.”
# as §3
# jugular vein [9] = test: Effect on ethanol-induced contraction of the jugular vein; type: cell-based, rabbit; details: 0.1 or 1 μM BMS-180291; n=3
# [10] = target: thromboxane A2 /prostaglandin endoperoxide receptor; details: against U-46,619-induced force; rat aorta; Ogletree et al 1993; cited from earlier work
# [11] = target: T2, thromboxane A2 /prostaglandin endoperoxide receptor; details: against U-46,619-induced force; rabbit aorta; S. Moreland, unpublished; cited from earlier work
# [12] = tested on: U-46,619-evoked platelet shape change; details: Ogletree et al 1993; cited from earlier work
# [13] = tested on: U-46,619-induced platelet aggregation; details: Ogletree et al 1993; cited from earlier work
# thromboxane A2 receptors = test: Potency of U-46,619 across rabbit jugular vein, rabbit aorta and rat aorta; type: cell-based; details: rabbit aorta, rat aorta, present study and cited work
# thromboxane A2 receptor = details: dog coronary artery, Cocks et al 1990; cited from earlier work
# [14] = tested on: tissues with an intact endothelium; test: Relaxation of endothelium-intact tissues by carbachol; type: cell-based, rabbit; details: Oryctolagus cuniculus; carbachol (1 μM) on bradykinin contracture
# Procedure: Male New Zealand white rabbits were euthanized by intravenous barbiturate overdose. The thoracic aorta and the left and right external jugular veins were then removed into warm (37° C.) physiological salt solution (PSS) of the following composition (mM): NaCl, 118.4; KCl, 4.7; CaCl2, 2.5; MgSO4, 1.2; NaHCO3, 24.9; KH2 PO4, 1.2; glucose, 11.1 and EDTA, 0.023; gassed with 95% O2 /5% CO2, pH 7.4. The vessels were cleaned of fat and loose adventitia and subsequently cut into rings 3-4 mm in width. The endothelium was removed from the rings, unless otherwise indicated, by gently rotating a metal probe in the lumen of the ring. The rings were then suspended in water-jacketed (37° C.) 10 ml tissue baths between two wire holders, one of which was attached to a fixed hook and the other to an isometric force transducer. Resting tension was set at 4 g for the aorta and 1 g for the jugular vein. The venous tissues were allowed to stabilize for a period of one hour and then challenged with a maximally effective concentration of bradykinin (1 μM) to evoke a tonic contracture. This response was used as a comparative reference response. Carbachol (1 μM) was introduced into the bath following stabilization of the bradykinin contracture to test for the presence of endothelium. […]
smiles,measurement,setting,value
CC1(C)Oc2ccc(C#N)cc2C(N2CCCC2=O)C1O (centres unmarked) [cromakalim],Effect on CsA-induced force,"[1]; CsA 3 μg/ml, present results",evoke relaxation of CsA (3 μg/ml CsA)-induced force
CCO [ethanol],Emax at 0.44 %,"jugular vein [2]; Oryctolagus cuniculus, cumulative addition of 0.44% ethanol, n=3, read-out: Force as % of bradykinin reference force",24.1 ± 3.3%
same,Force development / vasoconstriction (result in words),jugular vein [2],constrict the vein
CCCCCC[C@@H](O)C/C=C\CCCCCCCC(=O)O [ricinoleic acid],EC50,"jugular vein [2]; Oryctolagus cuniculus, control for indomethacin comparison, n=4",0.17 ± 0.05 µg/mL
same,EC50,"jugular vein [2]; Oryctolagus cuniculus, in presence of indomethacin, n=4",0.4 ± 0.11 µg/mL
same,EC50,"jugular vein [2]; Oryctolagus cuniculus, jugular vein, molar conversion",800 nM
same,EC50,"jugular vein [2]; Oryctolagus cuniculus, jugular vein, n=9",0.24 ± 0.04 µg/mL
same,Force development / vasoconstriction (result in words),jugular vein [2],cause vasoconstriction
same,Force development / vasoconstriction (result in words),jugular vein [2]; listed as Ricinoleic acid,concentration-dependent increases in force
same,Fold more potent than Cremophor,jugular vein [2]; in the vein,165 times
same,Fold more potent in vein than in aorta,"jugular vein [2]; ricinoleic acid, vein vs aorta",approximately 20 times
same,Thromboxane A2 agonist character,jugular vein [2]; summary conclusion,weak thromboxane A2 agonist
same,EC50,"aorta; Oryctolagus cuniculus, rabbit aorta, n=5, read-out: EC50 for ricinoleic acid-induced force",4.7 ± 0.7 µg/mL
same,Force development (result in words),aorta; aorta,concentration-dependent increases in force
same,Fold more potent than Cremophor,aorta; in the aorta,326 times
same,Emax at 100 µg/mL,"rat aorta; 100 μg/ml ricinoleic acid, rat aorta, n=4, read-out: Force as % of maximum phenylephrine-induced response",18.8 ± 2.5%
same,EC50,"rat aorta; rat aorta, n=4, read-out: EC50 for ricinoleic acid-induced force",> 10000 nM
same,Sensitivity of rat aorta,rat aorta; vs vein or rabbit aorta,considerably less sensitive
same,solubility,[3],≥ 100 µg/mL
"CCCCCNC(=O)c1coc(C2C3CCC(O3)C2Cc2ccccc2CCC(=O)O)n1 (stereo not drawn) [BMS-180291, [1S-[1α, 2α, 3α, 4α)]-2-[[3-[[4-(pentylamino)carbonyl]-2-oxazolyl]-7-oxabicyclo [2.2.1]hept-2-yl]-methyl]benzenepropanoic acid, sodium salt]",inhibition at 0.1 µM,"[4]; Oryctolagus cuniculus, 0.1 μM BMS-180291, Cremophor 39 μg/ml, n=4, read-out: Relaxation of Cremophor-precontracted jugular vein",85.6 ± 3.9%
same,Nature of antagonism of Cremophor-induced responses,"[4]; preincubation with BMS-180291 (10-300 nM), sodium salt",consistent with non-competitive antagonism; also recorded: apparently non-competitive fashion
same,Kb,"[5]; against U-46,619-induced force",3.6 nM
same,Schild slope,"[5]; against U-46,619-induced force",1.0
same,"Nature of antagonism of U-46,619-induced force",[5]; sodium salt,apparently competitive antagonist
same,Effect on Cremophor-induced force in the aorta,[6]; BMS-180291,inhibited
same,Kb,"[6]; Oryctolagus cuniculus, against Cremophor-induced force, assuming competitive antagonism, 0.03 μM BMS-180291 only, read-out: KBapp",6.4 nM
same,Kb,"[7]; Oryctolagus cuniculus, against ricinoleic acid, vein, assuming competition, 0.03 and 0.1 μM BMS-180291 only, read-out: KBapp",1.9 nM
same,Antagonism of ricinoleic acid-induced force,[7]; vein,concentration-dependent antagonism
same,Schild slope,"[8]; against ricinoleic acid, rabbit aorta",0.70
same,Kb,"[8]; against ricinoleic acid, rabbit aorta, assuming competition",4.3 nM
same,Antagonism of ricinoleic acid-induced force,[8]; aorta,concentration-dependent antagonism
same,Effect on contractile effects of ethanol,jugular vein [9],completely refractory
same,Kb,[10],0.6 nM
same,Kb,[11],4 nM
same,Nature of antagonism of platelet shape change,[12],apparently competitive fashion
same,Nature of inhibition of platelet aggregation,[13],apparently non-competitive fashion
"CCCCCC(O)C=CC1C2CC(CO2)C1CC=CCCCC(=O)O (centres unmarked) [U-46,619, 11,9-epoxymethano-PGH2]",Potency across the three tissues,thromboxane A2 receptors,approximately equal potency in all three tissues
Cc1ccc(N(CC2=NCCN2)c2cccc(O)c2)cc1 [phentolamine],Effect on potency and maximal contractile effect of CsA (words),[1],insensitive to phentolamine; also recorded: failed to antagonize the effects of CsA
same,Effect on potency and maximal contractile effect of CsA (words),[1]; listed as Phentolamine,significantly affected neither the potency nor the maximal contractile effect of CsA
COc1ccc2c(c1)c(CC(=O)O)c(C)n2C(=O)c1ccc(Cl)cc1 [indomethacin],Effect on vasoconstrictor effects of Cremophor (words),[4],The contractile effects of neither ricinoleic acid nor Cremophor were prevented
same,Effect on vasoconstrictor effects of Cremophor (words),[4]; listed as Indomethacin,failed to significantly inhibit the vasoconstrictor effects of Cremophor
same,Effect on ricinoleic acid-induced force (words),[7],The contractile effects of neither ricinoleic acid nor Cremophor were prevented
same,Effect on ricinoleic acid-induced force (words),[7]; listed as Indomethacin,no significant effect on ricinoleic acid-induced force
COc1ccc(Cl)cc1C(=O)NCCc1ccc(S(=O)(=O)NC(=O)NC2CCCCC2)cc1 [glyburide],Schild slope,[1]; against CsA-induced force,0.7
same,Kb,"[1]; against CsA-induced force, Schild analysis, read-out: KB",600 nM
same,Kb,"[1]; against CsA-induced force, glyburide 10 μM, n=4, read-out: KBapp",1500 nM
same,inhibition at 10 µM,[1]; read-out: Inhibition (reversal) of CsA-induced contraction,57.1%
same,Kb,"[4]; Oryctolagus cuniculus, against Cremophor-induced force, glyburide 10 μM, n=3, read-out: KBapp",900 nM
same,Kb,thromboxane A2 receptor,600 nM
C[N+](C)(C)CCOC(N)=O [carbachol],Percent relaxation at 1 µM,[14],50 to 100%
